One series relates to NEMO. The settings on record: ref [21], [32]–[34]; read-out: IC50, affinity to NEMO; cited from earlier work.
For another series, the system named is NF-κB activation. The experiment in a line: Dual-luciferase (NF-κB firefly/SV40-Renilla) reporter assay, TNF-α-stimulated HEK293 cells. The series is classed as cell-based, human. The note with it: for Relative luciferase activity (NF-κB/Renilla): Fig 4B, CTRL about 1; for NF-κB luciferase activity, dose-dependent curve: Fig S1A, CTRL about 100; for IC50: Homo sapiens, HEK293, luciferase assays at 0, 25, 50, 100, 150 μM, GraphPad, read-out: IC50 of inhibition of TNF-α-mediated NF-κB activation. Background: A reporter such as luciferase makes a cellular process visible.

In another series the test system is NF-κB target genes. The experiment in a line: qRT-PCR of NF-κB target genes in LPS-stimulated Raw 264.7 cells. Format: cell-based, mouse. The settings on record: LPS 1 μg/ml 2 h; for COX2 mRNA expression (qRT-PCR) / IL6 mRNA expression (qRT-PCR) / IL-1b mRNA expression (qRT-PCR) / TNFa mRNA expression (qRT-PCR) / iNOS mRNA expression (qRT-PCR) / ikBa mRNA expression (qRT-PCR): Fig 4C, IKKi VII 2 μM, 8K-NBD 200 μM, SR compounds 50 μM, relative to no LPS; for Effect on transcription of NF-κB target genes (COX-2, IL-6, IL-1β, TNF-α, IκBα, iNOS): 50 μM. A general note: In qPCR the cycle at which signal appears reflects the starting amount.

In a further series the test system is IL-6 production. The experiment in a line: Mouse IL-6 ELISA of supernatant of LPS-stimulated Raw 264.7 cells. The note with it: LPS 1 μg/ml 24 h; for mIL-6 in supernatant (ELISA): Fig 4D; for Effect on LPS-induced IL-6 production (ELISA): 25 and 50 μM. The series is classed as cell-based. The protocol:
Fig 4 Modified lead NBD mimetics inhibit TNF-α- and LPS-induced NF-κB activation by disrupting the association between NEMO and IKKβ. (A) Structures of top NBD mimetics. (B) Measurement of NF-κB activation in response to TNF-α by using Dual-luciferase reporter assays. HEK293 cells cotransfected with NF-κB luciferase reporter and SV40-Renilla plasmids were pretreated with DMSO or listed small molecules at 0, 25, 50, 100, and 150 μM for 30 min, followed by the induction of TNF-α for 3 h. Data shown are representative of 2–3 independent experiments. […] Raw 264.7 cells were pretreated with indicated drugs for 30 min and then stimulated with 1 μg/ml of LPS for 2 h. Cells were then harvested for RNA extraction and qRT-PCR analysis. Drug concentrations used are as follows: IKKi VII (2 μM), 8K-NBD peptide (200 μM), SR12343 (50 μM), SR12460 (50 μM), SR12454 (50 μM), and SR11481 (50 μM). Data are representative of 2 independent experiments. […] Raw 264.7 cells pretreated with DMSO or drugs at indicated concentrations were exposed to 1 μg/ml of LPS for 24 h, and supernatant was collected for ELISA analysis of mouse IL-6. *P < 0.05; **P < 0.01. Underlying data can be found in S1 Data. HEK293, human embryonic kidney 293 cells; IKK, IκB kinase; IL-6, interleukin 6; LPS, lipopolysaccharide; NBD, NEMO-binding domain; n.d., nondetectable; NEMO, NF-κB essential modulator; NF-κB, nuclear factor κB; qRT-PCR, […] real-time polymerase chain reaction; TNF-α; tumor necrosis factor α. TEXT PRINTED IN THE PICTURE: (D) ikki VII: mIL-6 (ng/ml): n.d. | (D) SR12460: mIL-6 (ng/ml): n.d. (50μM) | (D) SR12454: mIL-6 (ng/ml): n.d. (50μM) DOUBTS OF THE COPYIST ABOUT THIS PICTURE: Panel D: the only printed results are the three "n.d." labels. They stand in place of bars and are assigned to ikki VII, SR12460 50μM and SR12454 50μM by their position on the axis. All other results are shown only as bars, with no printed numbers.
To confirm the qRT-PCR results, the levels of IL-6 production in Raw 264.7 cells activated by LPS were analyzed by ELISA.
Raw 264.7 cells were grown in 96-well plates and pretreated with vehicle, IKKi VII (2 μM), and small molecules (at indicated concentration) for 1 h, followed by the stimulation with 1 μg/ml of LPS. Supernatant was collected 24 h later for ELISA analysis. IL-6 concentration was measured using a mouse IL-6 ELISA kit (BD) according to the manufacturer’s instructions.
On the technique in general: In an ELISA, binding on a coated surface is turned into a signal by an enzyme label.

Series [1] can be described thus: Plasma and tissue concentrations 2 h after a single i.p. injection. The series is classed as in vivo, mouse. The note with it: male, C57BL/6J, mouse, ip, 10 mg/kg, 2 h post single i.p. 10 mg/kg, single mice. The protocol:
To determine the stability of the NBD mimetics in vivo, their levels were measured in the plasma of mice 2 h post i.p. injection with 10 mg/kg of each compound. The concentration of SR12460 was very high in plasma (>6.5 μg/mL; 20 μM), while levels in brain, muscle, spleen, and liver were lower. SR12343 and SR12454 had lower plasma concentrations, with SR12343 showing a higher level in liver and SR12454 showing higher concentrations in muscle and spleen. The level of SR11481 was undetectable in plasma and tissues (Fig 6A).
Fig 6 Newly identified NBD mimetics suppress LPS-induced acute inflammation in vivo. (A) The bioavailability property of SR12460, SR12343, SR12454, and SR11481. Concentrations of NBD mimetics were determined in plasma, brain, muscle, spleen, and liver 2 h post a single i.p. injection of 10 mg/kg of drugs; n = 3 per group. (B) Shown is the model to induce LPS-mediated acute inflammation and the treatment regimen with NBD mimetics. Mouse image via http://www.clker.com/clipart-mice-blank.html (copyright-free). (C) NBD mimetics suppressed LPS-induced acute inflammation in liver and lung by down-regulating NF-κB target gene expression. Vehicle, SR12343, SR12460, and 8K-NBD peptide were dosed at 10 mg/kg 30 min prior to the LPS treatment. Acute inflammation was induced by i.p. injection of 10 mg/kg LPS. Lung and liver were collected 2–4 h post injection, and mRNA was extracted for qRT-PCR analysis. (D, E) Western blot analysis was performed to probe for the expression of p-IκBα and COX-2 at protein level in liver and lung tissues. (F) Serum levels of IL-6 were determine by ELISA. n = 3–8 each group. *P < 0.05, **P < 0.01. Underlying data can be found in S1 Data. COX-2, cyclooxygenase 2; IL-6, interleukin 6; i.p., intraperitoneal; LPS, lipopolysaccharide; NBD, NEMO-binding domain; n.d., nondetectable; NEMO, NF-κB essential modulator; NF-κB, nuclear factor κB; qRT-PCR, quantitative real-time polymerase chain reaction. TEXT PRINTED IN THE PICTURE: (A) SR11481: Concentration (ng/ml): n.d. (plasma)
The pharmacokinetic profile of the NBD mimetics was determined in male C57BL/6J mice (n = 3). The drugs were formulated in 10:10:80 of DMSO:Tween 80:water and were dosed by i.p. injection at a final dose of 10 mg/kg. Blood, brain, muscle, spleen, and liver were collected 2 h post treatment and were analyzed by mass spectrometry by following a protocol previously described.

“And” between values parts separate entries of the source, which are not always exact repeats. Identical values can stand only once. Like-named read-outs stand apart in the source and are kept apart here.

As to “IKKβ-derived peptide (701–746): longer IKKβ-derived peptide (701–746) with strongest affinity to NEMO (PAKKSEELVAEAHNLCTLLENAIQDTVREQDQSFTALDWSWLQTEE; UniProt O14920 701-746, looked up, fragment)”, the IC50 in the series on NEMO was around 0.01 µM.

On to `O=C(COCCc1cc(F)cc(F)c1)Nc1ccc(Cl)cn1` [SR12454], for which, in the series with NF-κB activation (25 μM), the “Relative luciferase activity (NF-κB/Renilla)” value (from here on “Relative luciferase activity”) is 0.3499 and 0.3985 and 0.4797; the “NF-κB luciferase activity, dose-dependent curve” value (“NF-κB luciferase activity” below) was 35 and 40 and 48. Further, in the series with NF-κB activation (50 μM), the “Relative luciferase activity” value is 0.1222 and 0.1389 and 0.1212; the “NF-κB luciferase activity” value was 12 and 14. In addition, in the series with NF-κB activation (100 μM), the “Relative luciferase activity” value was 0.07928 and 0.07742 and 0.08432; the “NF-κB luciferase activity” value is 8 and 7.7 and 8.4. In addition, in the series on NF-κB activation (150 μM), the “Relative luciferase activity” value is 0.1048 and 0.1061 and 0.0973; the “NF-κB luciferase activity” value is 10.4 and 10.6 and 9.7. Further, the 50% inhibitory concentration (IC50) in the series with NF-κB activation was 20.2 µM. In the series on NF-κB target genes, the “COX2 mRNA expression (qRT-PCR)” value is 150.094 and 139.148 and 109.409; the “IL6 mRNA expression (qRT-PCR)” value is 68.7623 and 55.5227 and 41.2895; the “IL-1b mRNA expression (qRT-PCR)” value is 114.812 and 133.157 and 94.1462; the “TNFa mRNA expression (qRT-PCR)” value was 50.3605 and 45.36 and 45.9381. Besides, in the series with NF-κB target genes, the “iNOS mRNA expression (qRT-PCR)” value is 0.9093 and 0.7681 and 0.624; the “ikBa mRNA expression (qRT-PCR)” value was 6.788 and 6.238 and 5.4976; the “Effect on transcription of NF-κB target genes (COX-2, IL-6, IL-1β, TNF-α, IκBα, iNOS)” value is “significantly inhibit the transcription of all NF-κB target genes tested”. Moreover, in the series with IL-6 production (25 μM), the “mIL-6 in supernatant (ELISA)” value was 0.9451 ng/mL and 1.2144 ng/mL and 1.5871 ng/mL. Further, the “mIL-6 in supernatant (ELISA)” value in the series on IL-6 production (50 μM) was determined as 0 ng/mL. Moreover, the “Effect on LPS-induced IL-6 production (ELISA)” value with IL-6 production is on record as “inhibit IL-6 secretion significantly in a dose-dependent manner”. The concentration at 2 h in series [1] (liver, read-out: Concentration in liver) is 50 ng/mL.

As to “11-mer NBD peptide: traditional 11-mer NBD peptide of IKKβ (735–745) (TALDWSWLQTE; NEMO-binding domain peptide; UniProt O14920 735-745, looked up, fragment)”, the IC50 with NEMO is around 100 µM.

Turning to `O=C(COC(=O)Cc1cc(F)cc(F)c1)Nc1ccc(Cl)cn1` [SR11481], in the series with NF-κB activation (25 μM), the “Relative luciferase activity” value was 0.669 and 0.7893 and 1.108; the “NF-κB luciferase activity” value was 67 and 79 and 111. Besides, in the series with NF-κB activation (50 μM), the “Relative luciferase activity” value was 0.3445 and 0.3583 and 0.2895; the “NF-κB luciferase activity” value was 34 and 36 and 29. Moreover, in the series on NF-κB activation (100 μM), the “Relative luciferase activity” value is 0.1303 and 0.1653 and 0.168; the “NF-κB luciferase activity” value is 13 and 16 and 17. For the same compound, in the series on NF-κB activation (150 μM), the “Relative luciferase activity” value was 0.2602 and 0.3121 and 0.2334; the “NF-κB luciferase activity” value was 26 and 31 and 23. Further, in the series with NF-κB activation, the half-inhibitory concentration (IC50) came to 45 µM. For the same compound, in the series on NF-κB target genes, the “COX2 mRNA expression (qRT-PCR)” value is 591.346 and 521.171 and 682.383; the “IL6 mRNA expression (qRT-PCR)” value was 630.626 and 570.463 and 862.622; the “IL-1b mRNA expression (qRT-PCR)” value is 411.733 and 420.368 and 564.689; the “TNFa mRNA expression (qRT-PCR)” value was 96.3315 and 86.7639 and 154.495. Further, in the series with NF-κB target genes, the “iNOS mRNA expression (qRT-PCR)” value was 25.4503 and 21.5558 and 14.0886; the “ikBa mRNA expression (qRT-PCR)” value is 12.89 and 13.062 and 21.9932; the “Effect on transcription of NF-κB target genes (COX-2, IL-6, IL-1β, TNF-α, IκBα, iNOS)” value is “did not induce a detectable suppression”. Also, in the series with IL-6 production (25 μM), the “mIL-6 in supernatant (ELISA)” value is 1.0708 ng/mL and 1.7487 ng/mL and 1.6903 ng/mL. Besides, the “mIL-6 in supernatant (ELISA)” value with IL-6 production (50 μM) is 2.4581 ng/mL and 2.0675 ng/mL and 2.2021 ng/mL. The “Effect on LPS-induced IL-6 production (ELISA)” value in the series with IL-6 production is “significant reduction in the accumulation of IL-6 protein”. Further, the concentration at 2 h in series [1] (plasma, read-out: Concentration in plasma) was determined as 0 ng/mL.

The term IC50 denotes the point on the concentration scale where inhibition reaches its midpoint.

The values are drawn from article PMC6013238, “Development of novel NEMO-binding domain mimetics for inhibiting IKK/NF-κB activation” (PLoS Biology, 2018).
